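Five concentrations, 48 hours, 96-well plates. The concentration for full growth arrest is given as TGI.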
Legend:
Assay in all cases: DTP human tumour cell line panel, 48 h
[1] = tested on: UACC-257 melanoma
[2] = tested on: SK-OV-3 ovarian
[3] = tested on: SNB-19 CNS
[4] = tested on: OVCAR-8 ovarian
[5] = tested on: UO-31 renal
[6] = tested on: NCI/ADR-RES ovarian
[7] = tested on: UACC-62 melanoma
[8] = tested on: HOP-92 NSCLC
[9] = tested on: OVCAR-3 ovarian
[10] = tested on: MDA-N
[11] = tested on: CAKI-1 renal
[12] = tested on: LOX IMVI melanoma
[13] = tested on: A498 renal
[14] = tested on: KM12 colon
[15] = tested on: PC-3 prostate
[16] = tested on: COLO 205 colon
[17] = tested on: EKVX NSCLC
[18] = tested on: M14 melanoma
[19] = tested on: MDA-MB-231 breast
[20] = tested on: HCC-2998 colon
[21] = tested on: NCI-H522 lung
[22] = tested on: SK-MEL-2 melanoma
[23] = tested on: MDA-MB-435
[24] = tested on: NCI-H226 lung
[25] = tested on: MALME-3M melanoma
[26] = tested on: SF-295 CNS
[27] = tested on: BT-549 breast
[28] = tested on: T-47D breast
[29] = tested on: IGROV1 ovarian
[30] = tested on: 786-0 renal
[31] = tested on: A549 NSCLC
[32] = tested on: ACHN renal
[33] = tested on: SN12C renal
[34] = tested on: SW-620 colon
[35] = tested on: CCRF-CEM leukemia
[36] = tested on: MOLT-4 leukemia
[37] = tested on: HCT-116 colon
[38] = tested on: HCT-15 colon
[39] = tested on: RPMI-8226 leukemia
[40] = tested on: K-562 leukemia
[41] = tested on: SF-268 CNS
[42] = tested on: NCI-H23 lung
[43] = tested on: HL-60(TB) leukemia
[44] = tested on: OVCAR-4 ovarian
[45] = tested on: HT29 colon
[46] = tested on: SF-539 CNS
[47] = tested on: U251 CNS
[48] = tested on: HOP-62 NSCLC
[49] = tested on: TK-10 renal
[50] = tested on: SNB-75 CNS
[51] = tested on: DU-145 prostate
[52] = tested on: SR leukemia
[53] = tested on: OVCAR-5 ovarian
[54] = tested on: NCI-H460 lung
[55] = tested on: MCF7 breast
[56] = tested on: HS 578T breast
[57] = tested on: SK-MEL-5 melanoma
[58] = tested on: RXF 393 renal
[59] = tested on: SK-MEL-28 melanoma

With Cc1cc2nnc(C(N)=O)c(N)c2cc1C the TGI [1] was > 100 µM, the TGI [2] was > 100 µM and the TGI [3] was > 100 µM. The TGI [4] was > 100 µM, the TGI [5] was > 100 µM and the TGI [6] was > 100 µM. The TGI [7] was > 100 µM, the TGI [8] was > 100 µM and the TGI [9] was > 100 µM. For the same compound, the TGI [10] was > 100 µM, the TGI [11] was > 100 µM and the TGI [12] was > 100 µM. For the same compound, the TGI [13] was > 100 µM, the TGI [14] was > 100 µM and the TGI [15] was > 100 µM. The TGI [16] was > 100 µM, the TGI [17] was > 100 µM and the TGI [18] was > 100 µM. The TGI [19] was > 100 µM, the TGI [20] was > 100 µM and the TGI [21] was > 100 µM. For the same compound, the TGI [22] was > 100 µM, the TGI [23] was > 100 µM and the TGI [24] was > 100 µM. For the same compound, the TGI [25] was > 100 µM, the TGI [26] was > 100 µM and the TGI [27] was > 100 µM. The TGI [28] was > 100 µM, the TGI [29] was > 100 µM and the TGI [30] was 68.3 µM. The TGI [31] was > 100 µM, the TGI [32] was > 100 µM and the TGI [33] was > 100 µM. The TGI [34] was > 100 µM, the TGI [35] was > 100 µM and the TGI [36] was > 100 µM. For the same compound, the TGI [37] was > 100 µM, the TGI [38] was > 100 µM and the TGI [39] was > 100 µM. The TGI [40] was > 100 µM, the TGI [41] was > 100 µM and the TGI [42] was > 100 µM. The TGI [43] was > 100 µM, the TGI [44] was > 100 µM and the TGI [45] was > 100 µM. For the same compound, the TGI [46] was > 100 µM, the TGI [47] was > 100 µM and the TGI [48] was > 100 µM. The TGI [49] was > 100 µM, the TGI [50] was 39.6 µM and the TGI [51] was > 100 µM. The TGI [52] was > 100 µM, the TGI [53] was > 100 µM and the TGI [54] was > 100 µM. The TGI [55] was > 100 µM, the TGI [56] was > 100 µM and the TGI [57] was > 100 µM.
In the case of O=c1c2c3c(sc2nc2n1N=CN(c1ccc(F)cc1)C2)CCCC3, the TGI [1] was > 100 µM, the TGI [2] was > 100 µM and the TGI [3] was > 100 µM. The TGI [4] was > 100 µM, the TGI [5] was > 100 µM and the TGI [6] was > 100 µM. For the same compound, the TGI [7] was > 100 µM, the TGI [8] was > 100 µM and the TGI [9] was > 100 µM. For the same compound, the TGI [10] was > 100 µM, the TGI [11] was > 100 µM and the TGI [12] was > 100 µM. For the same compound, the TGI [13] was > 100 µM, the TGI [14] was > 100 µM and the TGI [15] was > 100 µM. For the same compound, the TGI [16] was > 100 µM, the TGI [17] was > 100 µM and the TGI [18] was > 100 µM. The TGI [19] was > 100 µM, the TGI [20] was > 100 µM and the TGI [21] was > 100 µM. For the same compound, the TGI [22] was > 100 µM, the TGI [23] was > 100 µM and the TGI [24] was > 100 µM. For the same compound, the TGI [25] was > 100 µM, the TGI [26] was > 100 µM and the TGI [27] was > 100 µM. The TGI [28] was > 100 µM, the TGI [29] was > 100 µM and the TGI [30] was > 100 µM. The TGI [31] was > 100 µM, the TGI [32] was > 100 µM and the TGI [33] was > 100 µM. For the same compound, the TGI [34] was > 100 µM, the TGI [35] was > 100 µM and the TGI [36] was > 100 µM. The TGI [37] was > 100 µM, the TGI [58] was > 100 µM and the TGI [38] was > 100 µM. For the same compound, the TGI [59] was > 100 µM, the TGI [39] was > 100 µM and the TGI [40] was > 100 µM. For the same compound, the TGI [41] was > 100 µM, the TGI [42] was > 100 µM and the TGI [44] was > 100 µM. For the same compound, the TGI [45] was > 100 µM, the TGI [47] was > 100 µM and the TGI [48] was > 100 µM. The TGI [49] was > 100 µM, the TGI [50] was > 100 µM and the TGI [51] was > 100 µM. The TGI [52] was > 100 µM, the TGI [53] was > 100 µM and the TGI [54] was > 100 µM. The TGI [55] was > 100 µM, the TGI [56] was > 100 µM and the TGI [57] was > 100 µM.
For Cc1cc(NS(=O)(=O)c2ccc(Nc3c4ccccc4nc4c(C(=O)NCCO)cccc34)cc2)no1, the TGI [1] was > 100 µM, the TGI [2] was > 100 µM and the TGI [3] was > 100 µM. For the same compound, the TGI [4] was > 100 µM, the TGI [5] was 99.7 µM and the TGI [6] was > 100 µM. The TGI [7] was > 100 µM, the TGI [8] was > 100 µM and the TGI [9] was > 100 µM. The TGI [10] was > 100 µM, the TGI [11] was 88.2 µM and the TGI [12] was > 100 µM. The TGI [13] was > 100 µM, the TGI [14] was 62.7 µM and the TGI [15] was > 100 µM. The TGI [16] was > 100 µM, the TGI [17] was > 100 µM and the TGI [18] was 70 µM. For the same compound, the TGI [19] was > 100 µM, the TGI [20] was > 100 µM and the TGI [21] was 30.2 µM. For the same compound, the TGI [22] was 74 µM, the TGI [23] was > 100 µM and the TGI [25] was 70.4 µM. The TGI [26] was > 100 µM, the TGI [27] was 40.3 µM and the TGI [28] was > 100 µM. The TGI [29] was > 100 µM, the TGI [30] was > 100 µM and the TGI [31] was > 100 µM. The TGI [32] was > 100 µM, the TGI [33] was > 100 µM and the TGI [34] was 83.8 µM. For the same compound, the TGI [35] was 75.2 µM, the TGI [36] was > 100 µM and the TGI [38] was > 100 µM. The TGI [59] was > 100 µM, the TGI [39] was 79.3 µM and the TGI [40] was > 100 µM. For the same compound, the TGI [41] was > 100 µM, the TGI [42] was > 100 µM and the TGI [43] was > 100 µM. For the same compound, the TGI [44] was 86.7 µM, the TGI [45] was 78.8 µM and the TGI [47] was > 100 µM. For the same compound, the TGI [48] was > 100 µM, the TGI [49] was > 100 µM and the TGI [50] was 53.9 µM. The TGI [51] was > 100 µM, the TGI [52] was > 100 µM and the TGI [53] was > 100 µM. For the same compound, the TGI [54] was > 100 µM, the TGI [55] was 45.5 µM and the TGI [56] was > 100 µM. For the same compound, the TGI [57] was > 100 µM.
